{
  "source": "patent US20150125542A1",
  "about": "“TIE2 Activator, Vascular Endothelial Growth Factor (VEGF) Inhibitor, Angiogenesis Inhibitor, Vascular Maturing Agent, Vascular Normalizing Agent and Vascular Stabilizing Agent, and Pharmaceutical Composition” (Maruzen Pharmaceuticals Co., Ltd., priority 2010, published 2015)",
  "key": {"[1]": {"system": "human normal umbilical vein vascular endothelial cells co-cultured with human normal dermal fibroblasts", "assay": "Angiogenesis inhibitory effect test (angiogenesis kit, number of luminal branching, VEGF-A)", "assay_type": "cell-based", "details": "VEGF-A (+) 10 ng/mL", "method": "The pharmacological effect, i.e., angiogenesis inhibitory effect of the hawthorn extract was evaluated by measuring a decrease of the number of vascular branching by means of image analysis as follows. At first, human normal umbilical vein vascular endothelial cells were co-cultured with human normal dermal fibroblasts at a constant ratio using the angiogenesis kit (product of KURABO INDUSTRIES LTD.) to a proliferative state at the early stage of lumen formation. The test sample, the hawthorn extract (fruits) (HAWTHORN EXTRACT POWDER MF, product of MARUZEN PHARMACEUTICALS CO., LTD.), was added to media so as to have concentrations described in Table 2 in the presence of 10 ng/mL of vascular endothelial cell growth factor-A (VEGF-A) (product of KURABO INDUSTRIES LTD.), followed by incubation at 37° C. and 5% CO2. […] The CD31 (PECAM-1) in HUVEC cells was stained with the lumen staining kit (CD31, product of KURABO INDUSTRIES LTD.) The stained cells in the wells were photographed and counted for the number of luminal branching. Based on the thus-obtained number of luminal branching, the angiogenesis inhibitory effect was evaluated."}, "Tie2": {"target": "T1, Tie2 (Homo sapiens, UniProt Q02763)", "T1 construct": "endogenous in cells; host or cells: HUVEC (human umbilical vein endothelial cells)", "T1 sequence (Q02763 23-1124)": "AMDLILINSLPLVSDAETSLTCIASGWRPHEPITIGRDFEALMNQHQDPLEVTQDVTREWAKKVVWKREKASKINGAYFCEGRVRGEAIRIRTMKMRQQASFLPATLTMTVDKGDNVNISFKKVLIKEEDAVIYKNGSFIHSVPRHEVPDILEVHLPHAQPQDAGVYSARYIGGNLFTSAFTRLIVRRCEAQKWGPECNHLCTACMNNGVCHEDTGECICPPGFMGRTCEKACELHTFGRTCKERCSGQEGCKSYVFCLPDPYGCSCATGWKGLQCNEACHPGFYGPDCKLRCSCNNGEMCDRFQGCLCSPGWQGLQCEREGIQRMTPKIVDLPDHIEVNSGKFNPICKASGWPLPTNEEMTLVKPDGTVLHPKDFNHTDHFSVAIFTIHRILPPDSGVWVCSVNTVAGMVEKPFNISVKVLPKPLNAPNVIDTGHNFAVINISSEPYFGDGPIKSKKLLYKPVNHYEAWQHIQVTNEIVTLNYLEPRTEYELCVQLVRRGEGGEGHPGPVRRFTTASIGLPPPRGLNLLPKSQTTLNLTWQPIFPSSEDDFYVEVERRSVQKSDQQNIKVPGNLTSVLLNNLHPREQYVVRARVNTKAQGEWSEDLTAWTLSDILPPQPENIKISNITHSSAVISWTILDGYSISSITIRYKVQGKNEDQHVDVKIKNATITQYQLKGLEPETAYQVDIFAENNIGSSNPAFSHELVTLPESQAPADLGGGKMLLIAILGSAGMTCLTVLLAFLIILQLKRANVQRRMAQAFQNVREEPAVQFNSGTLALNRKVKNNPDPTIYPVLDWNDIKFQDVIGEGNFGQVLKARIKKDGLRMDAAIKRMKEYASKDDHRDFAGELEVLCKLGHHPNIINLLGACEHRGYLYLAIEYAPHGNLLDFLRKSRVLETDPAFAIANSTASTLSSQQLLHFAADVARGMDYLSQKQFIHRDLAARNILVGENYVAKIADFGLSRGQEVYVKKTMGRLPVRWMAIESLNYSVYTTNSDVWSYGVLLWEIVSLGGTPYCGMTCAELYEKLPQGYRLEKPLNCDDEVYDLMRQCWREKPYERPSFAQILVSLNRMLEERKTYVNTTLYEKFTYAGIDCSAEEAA", "assay": "Tie2 activating effect (immunoassay) test in HUVECs", "assay_type": "cell-based", "method": "The pharmacological effect of the hawthorn extract was evaluated by detecting the amount of phosphorylated Tie2 protein. The phosphorylated Tie2 protein was quantified by means of an immunochemical method including an immunoassay. The method was performed as follows.\nAt first, normal human umbilical vein endothelial cells (HUVECs) were cultured to confluent, inoculated into a 96-well plate at 2.0×10^4 cells/0.1 mL/well, and then cultured over night in a low-serum growth medium for vascular endothelial cells (HUMEDIA-EG2, product of KURABO INDUSTRIES LTD.) Next, the low-serum growth medium was replaced by 0.1 mL of a basal medium for vascular endothelial cells (HUMEDIA-EB2, product of KURABO INDUSTRIES LTD.) at 3 hours before cell stimulation (addition of test samples), and the post-cultured HUVECs were again cultured therein. […] After completion of the incubation, the amount of phosphorylated Tie2 and the total amount of Tie2 in the cells were measured by the immunoassay kit (HUMAN PHOSPHO-TIE2 (Y992) IMMUNOASSAY, product of R&D Systems) according to a manufacturer's protocol to thereby calculate the ratio of the amount of phosphorylated Tie2 to the total amount of Tie2.\nSimilarly, the ratio of the amount of phosphorylated Tie2 to the total amount of Tie2 was calculated in the case of using dimethyl sulfoxide (DMSO) as a negative control. […]"}},
  "data": [
    {"molecule": "Cc1ccc(C(=O)Nc2ccc(S(=O)(=O)O)c3cc(S(=O)(=O)O)cc(S(=O)(=O)O)c23)cc1NC(=O)c1cccc(NC(=O)Nc2cccc(C(=O)Nc3cc(C(=O)Nc4ccc(S(=O)(=O)O)c5cc(S(=O)(=O)O)cc(S(=O)(=O)O)c45)ccc3C)c2)c1", "note": "[Suramin]", "values": [
      {"measurement": "Number of vascular branching", "setting": "[1]; 50 μM, Means ± S.E., n = 3", "result": "30.0 ± 4.0"},
      {"measurement": "inhibition at 50 µM", "setting": "[1]; Homo sapiens, read-out: Angiogenesis inhibitory rate (%)", "result": 70.8, "unit": "%"}
    ]},
    {"molecule": "Angiopoietin-1: Angiopoietin-1 (product of R&D Systems, Inc.) as a positive control (protein, UniProt Q15389 16-498, looked up) Angiopoietin-1: HIGCSNQRRSPENSGRRYNRIQHGQCAYTFILPEHDGNCRESTTDQYNTNALQRDAPHVEPDFSSQKLQHLEHVMENYTQWLQKLENYIVENMKSEMAQIQQNAVQNHTATMLEIGTSLLSQTAEQTRKLTDVETQVLNQTSRLEIQLLENSLSTYKLEKQLLQQTNEILKIHEKNSLLEHKILEMEGKHKEELDTLKEEKENLQGLVTRQTYIIQELEKQLNRATTNNSVLQKQQLELMDTVHNLVNLCTKEGVLLKGGKREEEKPFRDCADVYQAGFNKSGIYTIYINNMPEPKKVFCNMDVNGGGWTVIQHREDGSLDFQRGWKEYKMGFGNPSGEYWLGNEFIFAITSQRQYMLRIELMDWEGNRAYSQYDRFHIGNEKQNYRLYLKGHTGTAGKQSSLILHGADFSTKDADNDNCMCKCALMLTGGWWFDACGPSNLNGMFYTAGQNHGKLNGIKWHYFKGPSYSLRSTTMMIRPLDF", "values": [
      {"measurement": "Activation rate of Tie2 (%)", "setting": "Tie2; 0.5 μg/mL, 10 min, negative control DMSO = 100, Means ± S.E., n = 4", "result": "130.2 ± 8.3", "unit": "%"},
      {"measurement": "Tie2 activating effect (immunoassay), in words", "setting": "Tie2; immunoassay kit", "result": "verified to be phosphorylated and thus activated"}
    ]}
  ]
}
